The subject of experiment [1] is T1, GLF_1777 (2KGR).
T1 construct: untagged, full-length gene on plasmid pSKR57 in Gluconobacter sp; CHM43 delta-GLF_0478 (strain SKR104)
As to the kind of experiment: NADH oxidation at […] nm, soluble cell extract of overexpressing strain. Type of experiment: biochemical, Gluconobacter sp. CHM43. As to conditions: co-substrate 2KG; standard assay 10 mM K-2-ketogluconate, 50 mM Na-acetate pH 6.0, 25°C.

The test system of experiment [2] is T1, GLF_1777 (2KGR). As to the kind of experiment: NADPH oxidation at […] nm, soluble cell extract of overexpressing strain. As to conditions: co-substrate 2KG; standard assay 10 mM K-2-ketogluconate, 50 mM Na-acetate pH 6.0, 25°C. Type of experiment: biochemical, Gluconobacter sp. CHM43.

Each structure is given as a SMILES string.

For the compound `NC(=O)C1=CN([C@@H]2O[C@H](COP(=O)(O)OP(=O)(O)OC[C@H]3O[C@@H](n4cnc5c(N)ncnc54)[C@H](O)[C@@H]3O)[C@@H](O)[C@H]2O)C=CC1` [NADH], the Km in experiment [1] was found to be 100 ± 9 µM.
For the compound `NC(=O)C1=CN([C@@H]2O[C@H](COP(=O)(O)OP(=O)(O)OC[C@H]3O[C@@H](n4cnc5c(N)ncnc54)[C@H](OP(=O)(O)O)[C@@H]3O)[C@@H](O)[C@H]2O)C=CC1` [NADPH], the Km in experiment [2] amounted to 3 ± 0.4 µM.

By Km is commonly meant the concentration of substrate that gives half-maximal velocity.

These data come from paper PMC11837542, “Two NADPH-dependent 2-ketogluconate reductases involved in 2-ketogluconate assimilation in Gluconobacter sp. strain CHM43” (Applied and Environmental Microbiology, 2025).
